Laboratory results reported in US20260007133A1, “HERBICIDAL COMPOSITION COMPRISING AZINE COMPOUNDS” (BASF SE, priority 2022, published 2026).
Read-outs that look alike come from different tables or passages of the source.

How the values were obtained:
Type in all cases: in vivo
Digitaria sanguinalis = assay: Greenhouse post-emergence (POST) herbicidal test on DIGSA; conditions: Digitaria sanguinalis, post-emergence, POST
In short: (§1)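 Visual damage rating on a 0–100 scale, 0 meaning normal growth and 100 complete kill of above-ground parts, taken 20 days after treatment. Spray applied post-emergence to plants 3–15 cm tall in loamy sand with approximately 3.0% humus.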

Amaranthus retroflexus = assay: Greenhouse pre-emergence (PRE) herbicidal test on AMARE; conditions: Amaranthus retroflexus, pre-emergence
In short: (§2)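 Pre-emergence greenhouse assay: sown loamy-sand pots (humus approx. 3.0%) were kept under transparent hoods until rooting, then grown at species-appropriate 10-25° C or 20-35° C. Response ratings of 0 (no damage) to 100 (no plants emerged) were recorded 20 days after application.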

Abutilon theophrasti [1] = assay: Greenhouse pre-emergence (PRE) herbicidal test on ABUTH; conditions: Abutilon theophrasti, pre-emergence
In short: as §2

Lolium multiflorum = assay: Greenhouse pre-emergence (PRE) herbicidal test on LOLMU
In short: as §2

Abutilon theophrasti [2] = assay: Greenhouse post-emergence (POST) herbicidal test on ABUTH; conditions: Abutilon theophrasti, post-emergence
In short: as §1

Commelina benghalensis = assay: Greenhouse pre-emergence (PRE) herbicidal test on COMBE; conditions: Commelina benghalensis, pre-emergence
In short: as §2

SMILES: COc1c(Br)cc(F)c(F)c1Nc1nc(N)nc(C(C)(C)F)n1 [Compound I-2]
- pest or weed control at 2 g/ha (Digitaria sanguinalis; 432 h, DIGSA, I-2 solo 2 gai/ha, 18 DAT): 0%
- pest or weed control at 8 g/ha (Digitaria sanguinalis; 480 h, 8 gai/ha, 20 DAT): 65%
- inhibition at 2 g/ha (Digitaria sanguinalis; 480 h, DIGSA, 2 gai/ha, 20 DAT, read-out: % activity solo application): 0%
- inhibition at 8 g/ha (Digitaria sanguinalis; 480 h, DIGSA, 8 gai/ha, 20 DAT, read-out: % activity solo application): 20%
- inhibition at 2 g/ha (Digitaria sanguinalis; 480 h, DIGSA, use rate 2 gai/ha, 20 DAT, read-out: solo application % activity): 0%
- inhibition at 8 g/ha (Digitaria sanguinalis; 480 h, DIGSA, use rate 8 gai/ha, 20 DAT, read-out: solo application % activity): 20%
- pest or weed control at 2 g/ha (Amaranthus retroflexus; 432 h, PRE, AMARE, I-2 solo 2 gai/ha, 18 DAT): 80%
- inhibition at 2 g/ha (Amaranthus retroflexus; 480 h, AMARE PRE, 20 DAT, use rate 2 gai/ha, read-out: % activity): 70%
- pest or weed control at 2 g/ha (Amaranthus retroflexus; 480 h, PRE, 2 gai/ha, 20 DAT): 70%
- inhibition at 2 g/ha (Amaranthus retroflexus; 480 h, PRE, AMARE, 2 gai/ha, 20 DAT, read-out: % activity solo application): 70%
- inhibition at 2 g/ha (Amaranthus retroflexus; 480 h, PRE, AMARE, use rate 2 gai/ha, 20 DAT, read-out: solo application % activity): 70%
- pest or weed control at 2 g/ha (Abutilon theophrasti [1]; 432 h, PRE, ABUTH, I-2 solo 2 gai/ha, 18 DAT): 30%
- pest or weed control at 8 g/ha (Abutilon theophrasti [1]; 432 h, PRE, ABUTH, I-2 solo 8 gai/ha, 18 DAT): 50%
- inhibition at 8 g/ha (Abutilon theophrasti [1]; 480 h, ABUTH PRE, 20 DAT, use rate 8 gai/ha, read-out: % activity): 65%
- pest or weed control at 2 g/ha (Abutilon theophrasti [1]; 480 h, PRE, 2 gai/ha, 20 DAT): 10%
- pest or weed control at 8 g/ha (Abutilon theophrasti [1]; 480 h, PRE, 8 gai/ha, 20 DAT): 65%
- inhibition at 2 g/ha (Abutilon theophrasti [1]; 480 h, PRE, ABUTH, 2 gai/ha, 20 DAT, read-out: % activity solo application): 10%
- inhibition at 8 g/ha (Abutilon theophrasti [1]; 480 h, PRE, ABUTH, 8 gai/ha, 20 DAT, read-out: % activity solo application): 55%
- inhibition at 8 g/ha (Abutilon theophrasti [1]; 480 h, PRE, ABUTH, use rate 8 gai/ha, 20 DAT, read-out: solo application % activity): 55%
- inhibition at 2 g/ha (Abutilon theophrasti [1]; ABUTH PRE, use rate 2 gai/ha, read-out: % activity): 20%
- inhibition at 2 g/ha (Abutilon theophrasti [1]; PRE, ABUTH, use rate 2 gai/ha, read-out: % activity): 20%
- % activity (Lolium multiflorum; LOLMU PRE, use rate 2 gai/ha): 30%
- pest or weed control at 2 g/ha (Lolium multiflorum; Lolium multiflorum, pre-emergence, 432 h, PRE, LOLMU, I-2 solo 2 gai/ha, 18 DAT, read-out: % activity): 0%
- pest or weed control at 8 g/ha (Lolium multiflorum; Lolium multiflorum, pre-emergence, 432 h, PRE, LOLMU, I-2 solo 8 gai/ha, 18 DAT): 30%
- inhibition at 2 g/ha (Lolium multiflorum; Lolium multiflorum, pre-emergence, 480 h, LOLMU PRE, 20 DAT, use rate 2 gai/ha, read-out: % activity): 10%
- inhibition at 8 g/ha (Lolium multiflorum; Lolium multiflorum, pre-emergence, 480 h, LOLMU PRE, 20 DAT, use rate 8 gai/ha, read-out: % activity): 15%
- pest or weed control at 2 g/ha (Lolium multiflorum; Lolium multiflorum, pre-emergence, 480 h, PRE, 2 gai/ha, 20 DAT, read-out: % activity): 10%
- inhibition at 2 g/ha (Lolium multiflorum; Lolium multiflorum, pre-emergence, 480 h, PRE, LOLMU, 2 gai/ha, 20 DAT, read-out: % activity solo application): 15%
- inhibition at 8 g/ha (Lolium multiflorum; Lolium multiflorum, pre-emergence, 480 h, PRE, LOLMU, 8 gai/ha, 20 DAT, read-out: % activity solo application): 90%
- inhibition at 2 g/ha (Lolium multiflorum; Lolium multiflorum, pre-emergence, 480 h, PRE, LOLMU, use rate 2 gai/ha, 20 DAT, read-out: solo application % activity): 15%
- inhibition at 2 g/ha (Lolium multiflorum; Lolium multiflorum, pre-emergence, 480 h, PRE, use rate 2 gai/ha, 20 DAT, read-out: % activity): 20%
- inhibition at 8 g/ha (Lolium multiflorum; Lolium multiflorum, pre-emergence, 480 h, PRE, use rate 8 gai/ha, 20 DAT, read-out: % activity): 85%
- inhibition at 2 g/ha (Lolium multiflorum; Lolium multiflorum, pre-emergence, LOLMU PRE, use rate 2 gai/ha, read-out: % activity): 35%
- inhibition at 2 g/ha (Lolium multiflorum; Lolium multiflorum, pre-emergence, PRE, LOLMU, use rate 2 gai/ha, read-out: % activity): 40%
- inhibition at 8 g/ha (Lolium multiflorum; Lolium multiflorum, pre-emergence, PRE, LOLMU, use rate 8 gai/ha, read-out: % activity): 60%
- pest or weed control at 2 g/ha (Abutilon theophrasti [2]; 432 h, POST, ABUTH, I-2 solo 2 gai/ha, 18 DAT): 20%
- pest or weed control at 8 g/ha (Abutilon theophrasti [2]; 432 h, POST, ABUTH, I-2 solo 8 gai/ha, 18 DAT): 20%
- inhibition at 2 g/ha (Abutilon theophrasti [2]; 480 h, ABUTH POST, 20 DAT, use rate 2 gai/ha, read-out: % activity): 10%
- pest or weed control at 2 g/ha (Abutilon theophrasti [2]; 480 h, POST, 2 gai/ha, 20 DAT): 10%
- inhibition at 2 g/ha (Abutilon theophrasti [2]; 480 h, POST, ABUTH, 2 gai/ha, 20 DAT, read-out: % activity solo application): 15%
- inhibition at 8 g/ha (Abutilon theophrasti [2]; 480 h, POST, ABUTH, 8 gai/ha, 20 DAT, read-out: % activity solo application): 40%
- inhibition at 8 g/ha (Abutilon theophrasti [2]; 480 h, POST, ABUTH, use rate 8 gai/ha, 20 DAT, read-out: solo application % activity): 40%
- pest or weed control at 8 g/ha (Commelina benghalensis; 432 h, PRE, COMBE, I-2 solo 8 gai/ha, 18 DAT): 25%
- inhibition at 2 g/ha (Commelina benghalensis; 480 h, COMBE PRE, 20 DAT, use rate 2 gai/ha, read-out: % activity): 20%
- inhibition at 8 g/ha (Commelina benghalensis; 480 h, COMBE PRE, 20 DAT, use rate 8 gai/ha, read-out: % activity): 60%
